Laboratory results reported in patent US12144792B2, “Therapeutic agents for neurodegenerative diseases” (priority 2016, dated 2024).

Tests used:
[1] = test system: patients with amyotrophic lateral sclerosis (ALS); test: Case studies, medical examination; assay type: in vivo, human
Description: The results were documented by video.

[2] = test system: patients with multisystemic atrophy cerebellar type (MSA-C); test: Case studies, clinical examination; assay type: in vivo, human
[3] = test system: patients with cerebellar ataxia; conditions: cited from earlier work
[4] = test system: Mucolipidosis Type IIIA (MLIIIA) patient fibroblasts; test: Lysosomal volume via LysoTracker; assay type: cell-based, human; conditions: 1 mM, 6 days, vs untreated
patients with ataxia = patients with ataxia (Becker-Bense et al. 2015); cited from earlier work
[5] = test system: patients with ataxia with oculomotor apraxia type 4; test: Case study, report of the patients'; assay type: in vivo, human; conditions: Ex. 18, youngest sibling, AOA4; reported by parent
Description: In this case study, four patients (male siblings) suffered from, and were later diagnosed with, ataxia with oculomotor apraxia type 4. The older three siblings […], at the time of disease onset. […] The older siblings began treatment with acetyl-leucine […], respectively, and have been on the treatment for approximately four years. No long-term clinical data is available for these three patients.
The youngest sibling was […] at the time of onset. […] No long-term clinical data is available for the youngest sibling.

NPC patients = test: Clinical severity score (CSS) and annual severity increment score (ASIS); assay type: in vivo, human; conditions: ten NPC patients, 4.5 g/day
Description: An NPC patient's severity may be quantified by assigning a clinical severity score (CSS), which assesses various parameters of the disease and gives each parameter a score out of 5 (higher score=greater severity). See Yanjanin et al., “Linear Clinical Progression, Independent of Age of Onset, in Niemann-Pick Disease, Type C,” Am J Med Genet Part B 153B:132-140. In an untreated patient, one can typically predict how the CSS will change over time in an individual, as disease progression appears to be linear. For example, if Patient A moves from a CSS of 8 to a CSS of 12 between month 0 and month 12, it can be predicted that by month 36, the patient will have a CSS of 20. The annual severity increment score (ASIS) quantities the annual rate of change in the CSS, calculated by dividing the CSS of a patient by the patient's age. […]
Ten NPC patients were administered acetyl-leucine at 4.5 g/day over long durations. A CSS was determined at baseline, and at various time points, for eye movement, ambulation, speech, swallow, fine motor skills, cognition, memory, and seizures. An overall CSS was calculated at baseline and at each such time point by adding the individual CSS values for each parameter (eye movement, ambulation, etc.).
The ASIS at baseline and each time point was calculated using each patient's CSS and age at the time of assessment. […]

[6] = test system: Aspartylglucosaminuria patient fibroblasts; test: Lysosomal volume via LysoTracker; assay type: cell-based, human; conditions: 1 mM, 6 days, vs untreated
[7] = test system: microtubule-associated protein 1A/1B-light chain 3-phosphatidylethanolamine conjugate (LC3-II); test: LC3-II levels relative to tubulin loading control; assay type: in vivo, mouse; conditions: NPC1−/− mice, 0.1 g/kg body weight daily from 3 weeks of age; sacrificed at 8 weeks
Method: (§1) The Niemann-Pick Disease Type C (NPC) mouse model shares a number of pathological features with Alzheimer's disease (AD) as described herein. […] Mice were sacrificed at 8 weeks of age. Levels of amyloid precursor protein C-terminal fragments (APP-CTFs) were evaluated relative to total amyloid precursor protein (APP) levels in the cerebellum for wild type, untreated wild type NPC1^−/− mice, and AL-treated wild type NPC1^−/− mice. Levels of microtubule-associated protein 1A/1B-light chain 3-phosphatidylethanolamine conjugate (LC3-II) were also evaluated relative to levels of tubulin loading control for wild type, untreated wild type NPC1^−/− mice, and AL-treated wild type NPC1^−/− mice.

[8] = test system: Mucopolysaccharidosis Type VII (MPS VII) patient fibroblasts; test: Lysosomal volume via LysoTracker; assay type: cell-based, human; conditions: 1 mM, 6 days, vs untreated
[9] = test system: patients with progressive supranuclear palsy; test: Case studies, clinical examination; assay type: in vivo, human; conditions: 3 then 5 g per day; for gait and hypokinetic rigid syndrome: 17 days
Method: After 27 days of acetyl-leucine treatment, medication was stopped and the patient was re-examined 60 days later. […] Gait analysis was performed before treatment commenced. After 17 days of treatment, medication was stopped and the patient was re-examined 4 days later. […] Gait analysis was performed before treatment commenced. After three weeks of treatment, medication was stopped and the patient was re-examined.

[10] = test system: AB variant of Tay-Sachs disease patient fibroblasts; test: Glycosphingolipid (GSL) levels via HPLC; assay type: cell-based, human; conditions: 1 mM for 6 days
[11] = test system: amyloid precursor protein C-terminal fragments (APP-CTFs); test: APP-CTF levels relative to total APP in the cerebellum; assay type: in vivo, mouse; conditions: NPC1−/− mice, 0.1 g/kg body weight daily from 3 weeks of age; sacrificed at 8 weeks
Method: as §1

[12] = test system: Tay-Sachs disease patient fibroblasts; test: Glycosphingolipid (GSL) levels via HPLC; assay type: cell-based, human; conditions: 1 mM for 6 days, p<0.05
[13] = Ex. 7 Patient 1, ALS, after a further 20 days

## CC(=O)NC(CC(C)C)C(=O)O (racemic) [acetyl-DL-leucine]
[1]; Ex. 7 Patient 1, ALS, 3 then 5 gram per day, after 15 days
  speech: significant improvement of speech
[1]; Ex. 7 Patient 1, ALS, about 7 days plus 1-2 additional weeks off treatment
  speech after stopping treatment: deterioration of speech
[1]; [13]
  paresis of the right foot-dorsiflexors and foot drop: improved dramatically and were clinically hardly detectable
  sleep: improvement in sleep
  speech: further improvement of speech
[1]; Ex. 7 Patient 1, ALS, resumed after second discontinuation
  symptomatology after resuming treatment: improved symptomatology, in particular speech
[1]; Ex. 7 Patient 2, ALS, 3 then 5 g per day, after approximately 2 months
  symptoms on re-examination: progredient deterioration of the motor function of the left hand, but a discrete improvement of walking
[1]; Ex. 7 Patient 3, ALS, 3 then 5 g per day, after one month
  symptomatology: did not report improvement of symptomatology
[1]; Ex. 7 Patient 4, ALS, 3 then 5 g per day, after about one month
  symptomatology: subjective improvement of dysphagia and less hypersalivation
[1]; Ex. 7 Patient 4, ALS, 10 days after therapy was suspended
  symptomatology after suspension: worsening of symptomatology
[2]; Ex. 8 Patient 1, MSA-C, 5 g per day, after one week
  speech: significant improvement in speech
[2]; Ex. 8 Patient 2, MSA-C, 3 then up to 5 gram per day, after 3 weeks
  gait: significant improvement of gait
[2]; Ex. 8 Patient 2, MSA-C, after 3 weeks, before approximately 10 falls a month
  falls: the falls completely stopped
[2]; Ex. 8 Patient 2, MSA-C, one week after stopping
  symptoms after stopping medication: deterioration of gait and dizziness
[3]; another case series (Pelz et al. 2015)
  benefit in cerebellar ataxia: did not find benefit
[3]; case series with cerebellar patients (Strupp et al. 2013)
  cerebellar ataxia symptoms: symptomatic improvement of cerebellar ataxia
[3]; quantitative gait analysis (Schniepp et al. 2015)
  temporal gait variability: improved temporal gait variability
[4]
  LysoTracker fluorescence (lysosomal volume): trend in reducing LysoTracker fluorescence
Patients with ataxia
  brain metabolism (PET): increased metabolism in the midbrain and lower brainstem in responders
[5]
  fine motor skills and speech compared to older siblings: improved fine motor skills and improved speech
NPC patients
  change of ASIS relative to baseline: all ten patients showed a reduction in ASIS
  change of overall CSS over the course of the experiment: none of the ten patients showed an overall increase in CSS
[6]
  LysoTracker fluorescence (lysosomal volume): trend in reducing LysoTracker fluorescence
[7]
  LC3-II levels relative to tubulin: lowering of LC3-II
[8]
  LysoTracker fluorescence (lysosomal volume): trend in reducing LysoTracker fluorescence
[9]; Ex. 11 Patient 1, PSP, 27 days
  dizziness and gait: significant reduction of dizziness and slight improvement of gait
[9]; Ex. 11 Patient 2, PSP
  gait and hypokinetic rigid syndrome: no significant improvement of gait or hypokinetic rigid syndrome
[9]; Ex. 11 Patient 3, PSP
  gait and hypokinetic rigid syndrome: no significant improvement of gait or hypokinetic rigid syndrome
[9]; Ex. 11 Patient 4, PSP, after three weeks
  gait and falls: gait with increased subjective security and with reduced frequency of falls
[10]
  GSL levels: trend towards decreased GSL levels
[11]
  APP-CTF levels relative to total APP in the cerebellum: lowering of APP-CTFs
[12]
  GSL levels: this decrease was statistically significant
